From article PMC13489962, “Small-molecule modulation of β-arrestins” (Nature, 2026)

System: βarr1/2
Assay: DSF with IP6 and/or Cmpd-5
Assay type: binding
Description: DSF assay was performed to identify β-arrestin-binding small molecules from the drug-like compound library (DDLC) described above. The screen was conducted using the StepOnePlus Real-Time PCR System (Applied Biosystems) with the fluorescent reporter probe SYPRO Orange (Thermo Fisher Scientific) in a 96-well format. Proteins were buffered in 20 mM HEPES (pH 7.5) with 100 mM NaCl. Small molecules (100 μM) were screened with either βARR1 or βARR2 (5 μM). DMSO was used as a vehicle control, and V2Rpp (50 μM) served as a positive control.
For DSF experiments involving the three positive control ligands (V2Rpp, IP6 and heparin, each at 50 μM) binding to β-arrestins, HEPES buffer was used as the vehicle control. Excitation and emission filters for SYPRO Orange were set to 475 nm and 580 nm, respectively. The temperature was increased by 0.5 °C every 30 s, from 25 °C to 99 °C, with fluorescence readings taken at each interval. Raw DSF data were analysed using Applied Biosystems Protein Thermal Shift Software. Fluorescence intensities were plotted as a function of temperature, and the midpoint of transition, or melting temperature (Tm), was calculated by plotting the first derivative of fluorescence emission as a function of temperature (dF/dT). […]

C=C1C(=O)[C@]23[C@H](O)[C@H]1CC[C@H]2[C@@]12CO[C@]3(O)[C@@H](O)[C@@H]1C(C)(C)CC[C@@H]2O [Cmpd-5, (1S,4aR,5S,6S,6aR,9S,11aS,11bS,14R)-1,5,6,14-tetrahydroxy−4,4-dimethyl-8-methylenedecahydro-1H-6,11b-(epoxymethano)-6a,9-methanocyclohepta[a]naphthalen-7(8H)-one]
effect on IP6-stabilized β-arrestin state by DSF: shifts βarr1/2 away from the IP6-stabilized active state
